Key:
[1] = Linkage (adsorption) of CTL receptor agonist to aluminum adjuvant (FIG. 2); format: physicochemical; conditions: aluminum oxyhydroxide
Text: However, monosaccharides can be modified by a chemical group including but not limited to fluoride, phosphate, sulfate, or carbonate group which permits a ligand exchange linkage of the molecule to the aluminum-containing adjuvant. Method for modifying saccharides by addition of fluoride, phosphate, sulfate, or carbonate groups is well known in the art (Cantos, et al. Biochem. J. (1993) 288: 155-160; Carbohydrate Chemistry, Royal Society of Chemistry, Ed. RD Guthrie (1968)). This is illustrated in FIG. 2 utilizing mannose as the CTL receptor agonist and aluminum oxyhydroxide. […] However, addition of a phosphate group at the 1 position of mannose (M1P) results in approximately 100% linkage of the CTL agonist to the aluminum adjuvant.
Another method to the increased avidity of the saccharide for the aluminum adjuvant particle is polymerization. For instance the avidity of the saccharide for the aluminum adjuvant particle may be increased by increasing the size of the saccharide by polymerization to produce a polysaccharide. The increase avidity for the aluminum adjuvant is due to the larger number of interactions of a polysaccharide as compared to a monosaccharide to allow for the stable linkage of the polysaccharide agonist to the aluminum adjuvant particle. […]

[2] = Stability of CTL agonist linkage to aluminum particle on exposure to phosphate (FIG. 3A, 3B); format: physicochemical; conditions: exposed to 50 mM phosphate pH 7.4 for 30 minutes in the absence of antigen
Text: It is important to maintain the stability of the CTL agonist linkage to the aluminum particle upon exposure to body fluid following administration. Components of interstitial fluid such as phosphate, citrate, and protein have the potential to remove the linkage of the CTL agonist with aluminum-containing adjuvants. The resulting soluble CTL agonist may adversely impact the immune response. FIG. 3A illustrates that M1P as well as mannan maintain approximately 100% linkage with aluminum oxyhydroxide when exposed to 50 mM phosphate pH 7.4 for 30 minutes in the absence of antigen.

| Molecule | Linkage of the CTL agonist to the aluminum adjuvant [1] | Linkage with aluminum oxyhydroxide maintained [2] |
| --- | --- | --- |
| O=P(O)(O)OC1O[C@H](CO)[C@@H](O)[C@H](O)[C@@H]1O (stereo partly shown) [Formulation M1P, mannose-1-phosphate] | approximately 100% | approximately 100% |
| mannan | approximately 100% | approximately 100% |
